From patent US7671085B2, “Non-steroidal farnesoid X receptor modulators and methods for the use thereof” (The Salk Institute for Biological Studies, priority 2002, dated 2010) come the findings set out here.

“Also recorded” adds a separate entry of the source.

The term EC50 denotes the concentration that produces a half-maximal response. Higher therefore signals a less potent agent.

This test has as its target T1, FXR (Homo sapiens, UniProt Q96RI1).
T1 construct: using a full length FXR on a natural response element; expressed in transfected cells
T1 sequence (Q96RI1 1-486): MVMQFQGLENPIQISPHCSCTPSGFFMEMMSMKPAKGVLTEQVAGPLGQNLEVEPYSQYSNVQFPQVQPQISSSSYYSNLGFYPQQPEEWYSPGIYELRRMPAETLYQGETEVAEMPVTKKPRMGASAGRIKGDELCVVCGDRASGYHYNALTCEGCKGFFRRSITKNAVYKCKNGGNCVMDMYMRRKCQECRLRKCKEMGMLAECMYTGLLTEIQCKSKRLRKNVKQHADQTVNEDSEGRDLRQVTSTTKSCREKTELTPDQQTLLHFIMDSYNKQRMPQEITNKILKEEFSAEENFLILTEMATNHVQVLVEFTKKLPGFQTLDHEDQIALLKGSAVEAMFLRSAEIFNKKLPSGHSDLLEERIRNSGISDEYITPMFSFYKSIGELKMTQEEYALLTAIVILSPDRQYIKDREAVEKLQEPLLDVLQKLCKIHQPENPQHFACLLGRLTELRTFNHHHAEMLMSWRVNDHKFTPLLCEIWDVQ
Nature of the test: cell-based FXR transcription assay, FXR responsive promoter linked to luciferase reporter. To be noted: for RE^a / EC50: cell-based FXR reporter assay; for RE^a: footnote a not given; for FXR activation, in words: cell-based reporter assay, SAR discussion; for EC50: determined with Prism 3.0. An excerpt:
In addition to ensuring that only cell permeable compounds were selected for further optimization, this approach allows for the detection of FXR activation in a natural system (i.e., correct folding of the protein and in the presence of a complete compliment of co-activators and co-repressors).
The feasibility of creating high throughput screens (HTS) for ORs was explored using FXR as a candidate orphan receptor (OR) with a known activator, chenodeoxycholic acid (CDCA) as a ligand. The screen is based on the co-transfection of a full-length receptor with the reporter vector containing a natural hormone response element under a minimal eukaryotic promoter. […] Using this 384-well format, the high throughput screening (HTS) approach to FXR as a candidate OR was employed. […] A central question in the feasibility studies is whether this library is suitable for screening for nuclear receptor ligands. Samples of this library were first reformatted into a 384-well format and then subjected to the FXR cell-based assays described above and assessed for FXR-mediated transcriptional activity. Cells were exposed to approximately 10 μM of sample for 18 hrs prior to washing and luciferase analysis.
EC50 values were determined with Prism 3.0 software via the activity of the subject compound in the previously described cell based assay.

As for `COC(=O)C=Cc1cccc(N(Cc2ccc(C=Cc3c(C)cc(C)cc3C)cc2)C(=O)C2CCCCC2)c1` [Compound 195], the “RE^a” value is recorded as 0.24 and the “FXR activation, in words” value is on record as “among the least active”.

`COC(=O)/C=C/c1cccc(N(Cc2ccc(/C=C/c3c(C)cc(C)cc3C)cc2)C(=O)C(C)C)c1` [Compound 196]: the “RE^a” value is recorded as 0.30.

As to `COC(=O)/C=C/c1cccc(N(Cc2ccc(/C=C/c3c(C)cc(C)cc3C)cc2)C(=O)NC(C)C)c1` [Compound 197], the “RE^a” value amounted to 0.14.

With `COC(=O)/C=C/c1cccc(N(Cc2ccc(/C=C/c3ccccc3)cc2)C(=O)C(C)C)c1` [Compound 198], the “RE^a” value was determined as 1.33 and the “FXR activation, in words” value is “excellent activity”.

As to `COC(=O)/C=C/c1cccc(N(Cc2ccc(/C=C/c3ccccc3)cc2)C(=O)NC(C)C)c1` [Compound 200], the “RE^a” value was 1.38.

Consider `COC(=O)C=Cc1cccc(N(Cc2ccc(C=Cc3cccc(F)c3)cc2)C(=O)C2CCCCC2)c1` [Compound 201], for which the “RE^a” value is 1.36 and the “FXR activation, in words” value was “excellent activity; also recorded: among the most active”.

For the compound `COC(=O)/C=C/c1cccc(N(Cc2ccc(/C=C/c3cccc(F)c3)cc2)C(=O)C(C)C)c1` [Compound 202], the “RE^a” value was found to be 1.33 and the “FXR activation, in words” value is listed as “excellent activity”.

As for `COC(=O)/C=C/c1cccc(N(Cc2ccc(/C=C/c3cccc(F)c3)cc2)C(=O)NC(C)C)c1` [Compound 203], the “RE^a” value is on record as 0.61.

On to `COC(=O)C=Cc1cccc(N(Cc2ccc(C=Cc3ccc(F)cc3)cc2)C(=O)C2CCCCC2)c1` [Compound 204], for which the “RE^a” value worked out at 0.53 and the “FXR activation, in words” value was “excellent activity; also recorded: among the most active”.

As to `COC(=O)/C=C/c1cccc(N(Cc2ccc(/C=C/c3ccc(F)cc3)cc2)C(=O)C(C)C)c1` [Compound 205], the response was half-maximal at 120 nM (EC50); the “RE^a” value is reported as 1.19; the “FXR activation, in words” value is recorded as “excellent activity”.

For the compound `COC(=O)/C=C/c1cccc(N(Cc2ccc(/C=C/c3ccc(F)cc3)cc2)C(=O)NC(C)C)c1` [Compound 206], the “RE^a” value turned out to be 0.91.

With `COC(=O)C=Cc1cccc(N(Cc2ccc(C=Cc3ccccn3)cc2)C(=O)C2CCCCC2)c1` [Compound 207], the “RE^a” value was 0.81.

Turning to `COC(=O)C=Cc1cccc(N(Cc2ccc(C=Cc3ccccn3)cc2)C(=O)C(C)C)c1` [Compound 208], the “RE^a” value was found to be 0.62.

Take `COC(=O)C=Cc1cccc(N(Cc2ccc(C=Cc3ccccn3)cc2)C(=O)NC(C)C)c1` [Compound 209]: the “RE^a” value is given as 0.68.

As to `COC(=O)C=Cc1cccc(N(Cc2ccc(C=Cc3scnc3C)cc2)C(=O)C2CCCCC2)c1` [Compound 210], the “RE^a” value turned out to be 0.53.

On to `COC(=O)C=Cc1cccc(N(Cc2ccc(C=Cc3scnc3C)cc2)C(=O)C(C)C)c1` [Compound 211], for which the “RE^a” value amounted to 0.32.

Consider `COC(=O)C=Cc1cccc(N(Cc2ccc(C=Cc3scnc3C)cc2)C(=O)NC(C)C)c1` [Compound 212], for which the “RE^a” value is on record as 0.42.

As to `COC(=O)/C=C/c1cccc(N(Cc2ccc(-c3ccc(F)c(F)c3)cc2)C(=O)C2CCCCC2)c1` [Compound 213], the “RE^a” value turned out to be 1.70 and the “FXR activation, in words” value is reported as “excellent activity”.

For the compound `COC(=O)/C=C/c1cccc(N(Cc2ccc(-c3ccc(F)c(F)c3)cc2)C(=O)C(C)C)c1` [Compound 214], the “RE^a” value stood at 1.15.

In the case of `COC(=O)/C=C/c1cccc(N(Cc2ccc(-c3ccc(F)c(F)c3)cc2)C(=O)NC(C)C)c1` [Compound 215], the “RE^a” value is 0.23.

As to `COC(=O)/C=C/c1cccc(N(Cc2ccc(-c3ccc(SC)cc3)cc2)C(=O)C(C)C)c1` [Compound 216], the “RE^a” value amounted to 0.98 and the “FXR activation, in words” value was “excellent activity”.

Take `COC(=O)/C=C/c1cccc(N(Cc2ccc(-c3ccc(SC)cc3)cc2)C(=O)NC(C)C)c1` [Compound 217]: the “RE^a” value stood at 0.23.

In the case of `COC(=O)/C=C/c1cccc(N(Cc2ccc(-c3ccccc3OC)cc2)C(=O)C2CCCCC2)c1` [Compound 218], the EC50 came to 359 nM and the “RE^a” value was 0.49.

On to `COC(=O)/C=C/c1cccc(N(Cc2ccc(-c3ccccc3OC)cc2)C(=O)C(C)C)c1` [Compound 219], for which the “RE^a” value is 0.28.

On to `COC(=O)/C=C/c1cccc(N(Cc2ccc(-c3ccccc3OC)cc2)C(=O)NC(C)C)c1` [Compound 220], for which the “RE^a” value was 0.09.

For `COC(=O)/C=C/c1cccc(N(Cc2ccc(-c3cc(Cl)cc(Cl)c3)cc2)C(=O)C(C)C)c1` [Compound 221], the EC50 came out at 661 nM and the “RE^a” value is 0.54.

`COC(=O)/C=C/c1cccc(N(Cc2ccc(-c3cc(Cl)cc(Cl)c3)cc2)C(=O)NC(C)C)c1` [Compound 222]: the EC50 was less than 10000 nM and the “RE^a” value came to 0.10.

For the compound `COC(=O)/C=C/c1cccc(N(Cc2ccc(-c3cccc(OC)c3)cc2)C(=O)C2CCCCC2)c1` [Compound 223], the “RE^a” value is on record as 1.51.

As for `COC(=O)/C=C/c1cccc(N(Cc2ccc(-c3cccc(OC)c3)cc2)C(=O)C(C)C)c1` [Compound 224], the “RE^a” value is reported as 1.28 and the “FXR activation, in words” value is recorded as “excellent activity”.

Consider `COC(=O)/C=C/c1cccc(N(Cc2ccc(-c3cccc(OC)c3)cc2)C(=O)NC(C)C)c1` [Compound 225], for which the “RE^a” value stood at 0.41.

For `CCOc1cccc(-c2ccc(CN(C(=O)C3CCCCC3)c3cccc(/C=C/C(=O)OC)c3)cc2)c1` [Compound 226], the “RE^a” value was 1.37.

Regarding `CCOc1cccc(-c2ccc(CN(C(=O)C(C)C)c3cccc(/C=C/C(=O)OC)c3)cc2)c1` [Compound 227], the “RE^a” value was found to be 1.03.

With `CCOc1cccc(-c2ccc(CN(C(=O)NC(C)C)c3cccc(/C=C/C(=O)OC)c3)cc2)c1` [Compound 228], the “RE^a” value is given as 0.33.

For the compound `COC(=O)/C=C/c1cccc(N(Cc2ccc(-c3ccc(OC)cc3)cc2)C(=O)C2CCCCC2)c1` [Compound 229], the “RE^a” value is 1.71 and the “FXR activation, in words” value was “excellent activity”.

Regarding `COC(=O)/C=C/c1cccc(N(Cc2ccc(-c3ccc(OC)cc3)cc2)C(=O)C(C)C)c1` [Compound 230], the “RE^a” value is 1.21 and the “FXR activation, in words” value is “excellent activity”.

Regarding `COC(=O)/C=C/c1cccc(N(Cc2ccc(-c3ccc(OC)cc3)cc2)C(=O)NC(C)C)c1` [Compound 231], the “RE^a” value was determined as 1.18.

As for `COC(=O)/C=C/c1cccc(N(Cc2ccc(-c3cccc(Cl)c3)cc2)C(=O)C2CCCCC2)c1` [Compound 232], the “RE^a” value amounted to 1.56 and the “FXR activation, in words” value is given as “excellent activity”.

For the compound `COC(=O)/C=C/c1cccc(N(Cc2ccc(-c3cccc(Cl)c3)cc2)C(=O)C(C)C)c1` [Compound 233], the EC50 is 77 nM; the “RE^a” value was 1.52; the “FXR activation, in words” value is reported as “excellent activity”.

With `COC(=O)/C=C/c1cccc(N(Cc2ccc(-c3cccc(Cl)c3)cc2)C(=O)NC(C)C)c1` [Compound 234], the “RE^a” value stood at 0.49.

Turning to `COC(=O)/C=C/c1cccc(N(Cc2ccc(-c3ccc(C)cc3)cc2)C(=O)C2CCCCC2)c1` [Compound 235], the “RE^a” value is 1.38 and the “FXR activation, in words” value is on record as “excellent activity”.

For `COC(=O)/C=C/c1cccc(N(Cc2ccc(-c3ccc(C)cc3)cc2)C(=O)C(C)C)c1` [Compound 236], the “RE^a” value stood at 1.48 and the “FXR activation, in words” value is “excellent activity”.

For `COC(=O)/C=C/c1cccc(N(Cc2ccc(-c3ccc(C)cc3)cc2)C(=O)NC(C)C)c1` [Compound 237], the “RE^a” value is listed as 0.80.

For `COC(=O)/C=C/c1cccc(N(Cc2ccc(-c3cccc(C)c3)cc2)C(=O)C2CCCCC2)c1` [Compound 238], the “RE^a” value was 1.43 and the “FXR activation, in words” value was “excellent activity”.

In the case of `COC(=O)/C=C/c1cccc(N(Cc2ccc(-c3cccc(C)c3)cc2)C(=O)C(C)C)c1` [Compound 239], the “RE^a” value is 1.09.

With `COC(=O)/C=C/c1cccc(N(Cc2ccc(-c3cccc(C)c3)cc2)C(=O)NC(C)C)c1` [Compound 240], the “RE^a” value is on record as 0.53.

For the compound `COC(=O)/C=C/c1cccc(N(Cc2ccc(-c3cc(Cl)ccc3OC)cc2)C(=O)C2CCCCC2)c1` [Compound 241], the “RE^a” value came to 1.16.

Take `COC(=O)/C=C/c1cccc(N(Cc2ccc(-c3cc(Cl)ccc3OC)cc2)C(=O)C(C)C)c1` [Compound 242]: the “RE^a” value amounted to 0.79.

Regarding `COC(=O)/C=C/c1cccc(N(Cc2ccc(-c3cc(Cl)ccc3OC)cc2)C(=O)NC(C)C)c1` [Compound 243], the “RE^a” value was determined as 0.17.
